From the Deep4Chem optical property database

Test: photoluminescence quantum yield (fraction); solvent given as SMILES

CCCN1/C(=C/C=C/C=C/C2=[N+](CCC)c3ccccc3C2(C)C)C(C)(C)c2ccccc21
photoluminescence quantum yield (in CO): 0.27 | photoluminescence quantum yield (in CS(C)=O): 0.55 | photoluminescence quantum yield (in O): 0.05

CCCCCCCCCCOc1ccc(C#Cc2ccc(C#Cc3ccc(OCCCCCCCCCC)c(OCCCCCCCCCC)c3)c3nc4c5ccccc5c5ccccc5c4nc23)cc1OCCCCCCCCCC
photoluminescence quantum yield (in C1CCOC1): 0.23 | photoluminescence quantum yield (in Cc1ccccc1): 0.24 | photoluminescence quantum yield (in ClCCl): 0.22

C(=C\c1cccnc1)/c1ccc(Nc2ccccc2)cc1
photoluminescence quantum yield (in CC#N): 0.25 | photoluminescence quantum yield (in CCCCCC): 0.37

CC(C)[Si](C#Cc1c2nsnc2c(C#C[Si](C(C)C)(C(C)C)C(C)C)c2nc3c(ccc4ccccc43)nc12)(C(C)C)C(C)C
photoluminescence quantum yield (in CCCCCC): 0.42

Cc1ccccc1-c1cc(-c2ccc(N3c4ccccc4C(C)(C)c4ccccc43)cc2)nc(-c2ccccc2)n1
photoluminescence quantum yield (in CC#N): 0.101 | photoluminescence quantum yield (in Cc1ccccc1): 0.777 | photoluminescence quantum yield (in ClCCl): 0.884

CCOc1cc2c(cc1/C=C/C1=CC(=C(C#N)C#N)CC(C)(C)C1)c1ccccc1n2CC
photoluminescence quantum yield (in C1CCOC1): 0.021 | photoluminescence quantum yield (in CC#N): 0.018 | photoluminescence quantum yield (in CCO): 0.025 | photoluminescence quantum yield (in CCOC(C)=O): 0.026 | photoluminescence quantum yield (in CN(C)C=O): 0.035 | photoluminescence quantum yield (in CS(C)=O): 0.05 | photoluminescence quantum yield (in Cc1ccccc1): 0.008 | photoluminescence quantum yield (in ClC(Cl)Cl): 0.017 | photoluminescence quantum yield (in ClCCl): 0.028

CC[C@H](C)COc1ccc(C2=C3C(C)=C(I)C(C)=[N+]3[B-](F)(F)n3c(C)c(I)c(C)c32)cc1
photoluminescence quantum yield (in ClCCl): 0.06

CC1=C(Br)C(C)=[N+]2C1=C(c1c(-c3ccccn3)nc3ccccn13)c1c(C)c(Br)c(C)n1[B-]2(F)F
photoluminescence quantum yield (in ClCCl): 0.0641

NS(=O)(=O)c1ccc(N2N=C(c3ccc(O)cc3)CC2c2ccc(Br)cc2)cc1 (centres undefined)
photoluminescence quantum yield (in C1CCOC1): 0.7 | photoluminescence quantum yield (in C1COCCO1): 0.75 | photoluminescence quantum yield (in CC#N): 0.65 | photoluminescence quantum yield (in CC(C)O): 0.57 | photoluminescence quantum yield (in CCO): 0.5 | photoluminescence quantum yield (in CCOC(C)=O): 0.75 | photoluminescence quantum yield (in CN(C)C=O): 0.68 | photoluminescence quantum yield (in CO): 0.38 | photoluminescence quantum yield (in CS(C)=O): 0.69 | photoluminescence quantum yield (in O): 0.56

CC1=CC(C)=[N+]2C1=Cc1c3ccccc3c(C#Cc3cccs3)n1[B-]2(F)F
photoluminescence quantum yield (in CCCCCC): 0.69 | photoluminescence quantum yield (in CCCCCCCCO): 0.45 | photoluminescence quantum yield (in CCOC(C)=O): 0.55 | photoluminescence quantum yield (in CN(C)C=O): 0.4 | photoluminescence quantum yield (in ClCCl): 0.44

C[C@@]12SC(Cl)=CC1=c1nc(-c3ccc(Cl)cc3)[nH]c1=C1C=C(Cl)S[C@]12C
photoluminescence quantum yield (in CC#N): 0.009

Cc1cc(C)c(C2=C3C=C(c4ccc(C(C)(C)C)cc4)C(c4ccc(C(C)(C)C)cc4)=[N+]3[B-](F)(F)n3c2cc(-c2ccc(C(C)(C)C)cc2)c3-c2ccc(C(C)(C)C)cc2)c(C)c1
photoluminescence quantum yield (in C1CCCCC1): 0.77 | photoluminescence quantum yield (in C1CCOC1): 0.96 | photoluminescence quantum yield (in CC#N): 0.62 | photoluminescence quantum yield (in Cc1ccccc1): 0.78 | photoluminescence quantum yield (in ClCCl): 0.74

O=C(O)c1cc2c(ccc3ccccc32)oc1=O
photoluminescence quantum yield (in C1COCCO1): 0.53 | photoluminescence quantum yield (in CC#N): 0.54 | photoluminescence quantum yield (in CCCCO): 0.27 | photoluminescence quantum yield (in CCO): 0.07 | photoluminescence quantum yield (in CO): 0.1 | photoluminescence quantum yield (in O): 0.41

O=c1oc2ccccc2c2c1c(=O)oc1c3ccccc3cc(O)c12
photoluminescence quantum yield (in ClCCl): 0.29

c1cc2c3c(cccc3c1)C(N1CCOCCOCCOCCOCC1)=N2
photoluminescence quantum yield (in CC#N): 0.004

N#Cc1nn(-c2ccccc2C(F)(F)F)nc1N1CCCC1
photoluminescence quantum yield (in CC#N): 0.71

COc1cc(OC)cc(C2=C3C(C)=C(I)C(C)=[N+]3[B-](F)(F)n3c(/C=C/c4c[nH]c5ccc([N+](=O)[O-])cc45)c(I)c(C)c32)c1
photoluminescence quantum yield (in C1CCOC1): 0.32 | photoluminescence quantum yield (in CS(C)=O): 0.19 | photoluminescence quantum yield (in ClCCl): 0.37

CCn1c2ccccc2c2cc(-c3cc(-c4ccc5c(c4)c4ccccc4n5CC)nc(S(C)(=O)=O)n3)ccc21
photoluminescence quantum yield (in C1CCOC1): 0.61 | photoluminescence quantum yield (in CCOC(C)=O): 0.76 | photoluminescence quantum yield (in CN(C)C=O): 0.6 | photoluminescence quantum yield (in Cc1ccccc1): 0.77 | photoluminescence quantum yield (in ClCCl): 0.72

CC1(C)c2cccc(-c3nc(-c4ccccc4)nc(-c4ccccc4)n3)c2Oc2c(N3c4ccccc4Sc4ccccc43)cccc21
photoluminescence quantum yield (in Cc1ccccc1): 0.077

CCOC(=O)/C(C#N)=C\c1ccc2c(c1)c1ccccc1n2-c1ccc(OC)cc1
photoluminescence quantum yield (in C1CCOC1): 0.13 | photoluminescence quantum yield (in CC#N): 0.04 | photoluminescence quantum yield (in CC(C)=O): 0.05 | photoluminescence quantum yield (in CCOC(C)=O): 0.08 | photoluminescence quantum yield (in CO): 0.02 | photoluminescence quantum yield (in CS(C)=O): 0.03 | photoluminescence quantum yield (in Cc1ccccc1): 0.14 | photoluminescence quantum yield (in ClC(Cl)Cl): 0.09

CC(C)(C)c1ccc(-c2ccc(C(C)(C)C)cc2)cc1
photoluminescence quantum yield (in C1CCCCC1): 0.26

CC1=CC(/C=C/c2ccc3ccc4cccc5ccc2c3c45)=[N+]2C1=C(c1ccccc1)c1c(C)cc(/C=C/c3ccc4ccc5cccc6ccc3c4c56)n1[B-]2(F)F
photoluminescence quantum yield (in CC1CCCO1): 0.8

c1ccc(-c2nc(-c3ccc(N4c5ccccc5Oc5ccccc54)cc3)nn2-c2ccc(N3c4ccccc4Oc4ccccc43)cc2)nc1
photoluminescence quantum yield (in ClCCl): 0.11

COc1cc2sc3nc(-c4ccccc4)sc3c2cc1OC
photoluminescence quantum yield (in CS(C)=O): 0.52

Cc1cc(C)c(B(c2ccc(N3c4ccccc4Oc4ccccc43)cc2)c2c(C)cc(C)cc2C)c(C)c1
photoluminescence quantum yield (in Cc1ccccc1): 0.87

CCCCCCCCCCOc1ccc(C#Cc2cc3c(C#Cc4ccc(OCCCCCCCCCC)cc4)c(C#Cc4ccc(OCCCCCCCCCC)cc4)c4cc(C#Cc5ccc(OCCCCCCCCCC)cc5)cc5c(C#Cc6ccc(OCCCCCCCCCC)cc6)c(C#Cc6ccc(OCCCCCCCCCC)cc6)c(c2)c3c45)cc1
photoluminescence quantum yield (in ClCCl): 0.44

O=C1c2ccccc2-c2ccc(N3CCOCC3)c3cccc1c23
photoluminescence quantum yield (in C1CCOC1): 0.15 | photoluminescence quantum yield (in CCCCCC): 0.33 | photoluminescence quantum yield (in CCO): 0.12 | photoluminescence quantum yield (in CCOC(C)=O): 0.3 | photoluminescence quantum yield (in CN(C)C=O): 0.14 | photoluminescence quantum yield (in CO): 0.12 | photoluminescence quantum yield (in Cc1ccccc1): 0.64 | photoluminescence quantum yield (in ClC(Cl)(Cl)Cl): 0.18 | photoluminescence quantum yield (in ClC(Cl)Cl): 0.53 | photoluminescence quantum yield (in ClCCl): 0.53 | photoluminescence quantum yield (in c1ccccc1): 0.68

CC(C)(C)c1cc2c3cc(C(C)(C)C)c(-c4cc5cc6c7cccc8cccc(c9cc(C(C)(C)C)cc(c5cc4C(C)(C)C)c96)c87)cc3cc3c4cccc5cccc(c(c1)c23)c54
photoluminescence quantum yield (in CC1CCCCC1): 0.64

c1ccc(-c2nc(-c3ccccc3)c(N(c3ccccc3)c3ccccc3)s2)cc1
photoluminescence quantum yield (in ClC(Cl)Cl): 0.43

CCCCN1C(=O)c2cc(Oc3ccc(C(C)(C)C)cc3)c3c4c(Oc5ccc(C(C)(C)C)cc5)cc5c(=O)n6c(c7cc(Oc8ccc(C(C)(C)C)cc8)c(c8c(Oc9ccc(C(C)(C)C)cc9)cc(c2c38)C1=O)c4c57)=Cc1cccc[n+]1[B-]6(F)F
photoluminescence quantum yield (in C1CCOC1): 0.564 | photoluminescence quantum yield (in Cc1ccccc1): 0.451 | photoluminescence quantum yield (in ClCCl): 0.5

CC(C)(C)c1ccc(-c2c(-c3ccc(-n4c5ccccc5c5ccccc54)cc3)c(C#N)c(-c3ccc(-n4c5ccccc5c5ccccc54)cc3)c(-c3ccc(C(C)(C)C)cc3)c2-c2ccc(C(C)(C)C)cc2)cc1
photoluminescence quantum yield (in C1CCOC1): 0.803

CCc1c(C)c2n(c1C)[B-](F)(F)[N+]1=C(C=C3C=Cc4ccccc43)C=CC1=C2C
photoluminescence quantum yield (in C1CCCCC1): 0.02

COc1ccccc1-c1nc2c3ccccc3c3ccccc3c2n1-c1ccc(C)cc1
photoluminescence quantum yield (in Cc1ccccc1): 0.284

COc1ccc(C2=C(c3ccc(OC)cc3)c3cccc4c5c(cc(c34)O2)=NC2C=C(Br)C(Br)=CC2N=5)cc1 (centres undefined)
photoluminescence quantum yield (in ClCCl): 0.28

COc1ccc(N(c2ccccc2)c2ccc3ccc4c(N(c5ccccc5)c5ccc(OC)cc5)ccc5ccc2c3c54)cc1
photoluminescence quantum yield (in ClCCl): 0.46

CCCCN(CCCC)c1ccc(/C=C/c2ccc(-c3ccc(/C=C/c4ccc(N(CCCC)CCCC)cc4)cc3)cc2)cc1
photoluminescence quantum yield (in CS(C)=O): 0.89 | photoluminescence quantum yield (in Cc1ccccc1): 0.81

CN(C)c1ccc(C2=Nc3sc4cc(Cl)ccc4[n+]3[B-](F)(F)O2)cc1
photoluminescence quantum yield (in C1CCOC1): 0.74 | photoluminescence quantum yield (in CC#N): 0.12 | photoluminescence quantum yield (in CC(C)=O): 0.21 | photoluminescence quantum yield (in Cc1ccccc1): 0.91 | photoluminescence quantum yield (in ClCCl): 0.78

COc1cc2c(cc1OC)C1=C[C@H](c3ccc(Cl)cc3)C3(C(C#N)=C(C#N)N1CC2)c1cc(Cl)ccc1-c1ccc(Cl)cc13
photoluminescence quantum yield (in ClCCl): 0.00065

C=Cc1cccc(OC)c1
photoluminescence quantum yield (in C1CCCCC1): 0.32 | photoluminescence quantum yield (in CC#N): 0.28

O=P1(c2ccccc2)C(c2ccc(N(c3ccccc3)c3ccccc3)cc2)=Cc2ccccc21 (centres undefined)
photoluminescence quantum yield (in ClCCl): 0.81

CCCCCCCCOc1ccc(-c2c3c4n(c(-c5ccc(OCCCCCCCC)cc5)c3c3n2[B-](c2ccccc2)(c2ccccc2)[n+]2c(ccc5cc(C(C)(C)C)ccc52)C=3C#N)[B-](c2ccccc2)(c2ccccc2)[n+]2c(ccc3cc(C(C)(C)C)ccc32)C=4C#N)cc1
photoluminescence quantum yield (in ClC(Cl)Cl): 0.53
